Experimental data from PubChem BioAssay (NCI).
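These data come from cells grown in 96-well plates and exposed to compound for 48 hours at five concentrations. TGI denotes the concentration required for complete inhibition of growth.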

Assays:
Assay in all cases: inhibition of tumour cell growth, NCI panel, 48 h
M19-MEL melanoma = tested on: M19-MEL melanoma
OVCAR-3 ovarian = tested on: OVCAR-3 ovarian
HCT-116 colon = tested on: HCT-116 colon
MDA-N = tested on: MDA-N
EKVX NSCLC = tested on: EKVX NSCLC
NCI/ADR-RES ovarian = tested on: NCI/ADR-RES ovarian
HS 578T breast = tested on: HS 578T breast
XF 498 CNS = tested on: XF 498 CNS
HCC-2998 colon = tested on: HCC-2998 colon
HCT-15 colon = tested on: HCT-15 colon
LXFL 529 NSCLC = tested on: LXFL 529 NSCLC
SK-MEL-28 melanoma = tested on: SK-MEL-28 melanoma
MDA-MB-435 = tested on: MDA-MB-435
NCI-H23 lung = tested on: NCI-H23 lung
UO-31 renal = tested on: UO-31 renal
SK-MEL-2 melanoma = tested on: SK-MEL-2 melanoma
NCI-H522 lung = tested on: NCI-H522 lung
RPMI-8226 leukemia = tested on: RPMI-8226 leukemia
SK-OV-3 ovarian = tested on: SK-OV-3 ovarian
SR leukemia = tested on: SR leukemia
OVCAR-4 ovarian = tested on: OVCAR-4 ovarian
786-0 renal = tested on: 786-0 renal
UACC-257 melanoma = tested on: UACC-257 melanoma
SW-620 colon = tested on: SW-620 colon
HL-60(TB) leukemia = tested on: HL-60(TB) leukemia
K-562 leukemia = tested on: K-562 leukemia
SF-268 CNS = tested on: SF-268 CNS
KM12 colon = tested on: KM12 colon
NCI-H460 lung = tested on: NCI-H460 lung
CAKI-1 renal = tested on: CAKI-1 renal
KM20L2 colon = tested on: KM20L2 colon
MOLT-4 leukemia = tested on: MOLT-4 leukemia
RXF 393 renal = tested on: RXF 393 renal
DMS 273 small cell lung = tested on: DMS 273 small cell lung
T-47D breast = tested on: T-47D breast
SK-MEL-5 melanoma = tested on: SK-MEL-5 melanoma
U251 CNS = tested on: U251 CNS
SF-295 CNS = tested on: SF-295 CNS
A498 renal = tested on: A498 renal
HT29 colon = tested on: HT29 colon
DMS 114 small cell lung = tested on: DMS 114 small cell lung
OVCAR-5 ovarian = tested on: OVCAR-5 ovarian
CCRF-CEM leukemia = tested on: CCRF-CEM leukemia
A549 NSCLC = tested on: A549 NSCLC
M14 melanoma = tested on: M14 melanoma
SNB-78 CNS = tested on: SNB-78 CNS
SN12C renal = tested on: SN12C renal
HOP-18 NSCLC = tested on: HOP-18 NSCLC
DU-145 prostate = tested on: DU-145 prostate
SF-539 CNS = tested on: SF-539 CNS
SNB-19 CNS = tested on: SNB-19 CNS
MALME-3M melanoma = tested on: MALME-3M melanoma
NCI-H226 lung = tested on: NCI-H226 lung
UACC-62 melanoma = tested on: UACC-62 melanoma
MCF7 breast = tested on: MCF7 breast
LOX IMVI melanoma = tested on: LOX IMVI melanoma
HOP-92 NSCLC = tested on: HOP-92 NSCLC
MDA-MB-231 breast = tested on: MDA-MB-231 breast
TK-10 renal = tested on: TK-10 renal
COLO 205 colon = tested on: COLO 205 colon
DLD-1 colon = tested on: DLD-1 colon
OVCAR-8 ovarian = tested on: OVCAR-8 ovarian
PC-3 prostate = tested on: PC-3 prostate
ACHN renal = tested on: ACHN renal
IGROV1 ovarian = tested on: IGROV1 ovarian
SNB-75 CNS = tested on: SNB-75 CNS

Structure (SMILES): COc1ccc(OC)c2c1C(=O)C(Cl)=C(Cl)C2=O
- TGI (M19-MEL melanoma): 16.2 µM
- TGI (OVCAR-3 ovarian): 7.85 µM
- TGI (HCT-116 colon): 3.86 µM
- TGI (MDA-N): 4.19 µM
- TGI (EKVX NSCLC): 21.9 µM
- TGI (NCI/ADR-RES ovarian): 5.74 µM
- TGI (HS 578T breast): 6.06 µM
- TGI (XF 498 CNS): 3.67 µM
- TGI (HCC-2998 colon): 31.2 µM
- TGI (HCT-15 colon): 10.7 µM
- TGI (LXFL 529 NSCLC): 4.74 µM
- TGI (SK-MEL-28 melanoma): 12.8 µM
- TGI (MDA-MB-435): 5.88 µM
- TGI (NCI-H23 lung): 19.2 µM
- TGI (UO-31 renal): 6.66 µM
- TGI (SK-MEL-2 melanoma): 8.73 µM
- TGI (NCI-H522 lung): 4.68 µM
- TGI (RPMI-8226 leukemia): > 27.6 µM
- TGI (SK-OV-3 ovarian): 67.4 µM
- TGI (SR leukemia): > 88 µM
- TGI (OVCAR-4 ovarian): 13 µM
- TGI (786-0 renal): 10.5 µM
- TGI (UACC-257 melanoma): 4.68 µM
- TGI (SW-620 colon): 3.6 µM
- TGI (HL-60(TB) leukemia): > 100 µM
- TGI (K-562 leukemia): > 100 µM
- TGI (SF-268 CNS): 27 µM
- TGI (KM12 colon): 33.8 µM
- TGI (NCI-H460 lung): 44.3 µM
- TGI (CAKI-1 renal): 7.99 µM
- TGI (KM20L2 colon): 22.3 µM
- TGI (MOLT-4 leukemia): 8.87 µM
- TGI (RXF 393 renal): 3.65 µM
- TGI (DMS 273 small cell lung): 20.1 µM
- TGI (T-47D breast): 8.09 µM
- TGI (SK-MEL-5 melanoma): 14.1 µM
- TGI (U251 CNS): 38.9 µM
- TGI (SF-295 CNS): 38.6 µM
- TGI (A498 renal): 41.6 µM
- TGI (HT29 colon): 15.5 µM
- TGI (DMS 114 small cell lung): 4.76 µM
- TGI (OVCAR-5 ovarian): 29.6 µM
- TGI (CCRF-CEM leukemia): > 100 µM
- TGI (A549 NSCLC): 56.4 µM
- TGI (M14 melanoma): 6.46 µM
- TGI (SNB-78 CNS): 15.8 µM
- TGI (SN12C renal): 23.1 µM
- TGI (HOP-18 NSCLC): 12.4 µM
- TGI (DU-145 prostate): 37.6 µM
- TGI (SF-539 CNS): 11.6 µM
- TGI (SNB-19 CNS): > 77.4 µM
- TGI (MALME-3M melanoma): 4.46 µM
- TGI (NCI-H226 lung): 42.2 µM
- TGI (UACC-62 melanoma): 6.9 µM
- TGI (MCF7 breast): 10.4 µM
- TGI (LOX IMVI melanoma): 5.18 µM
- TGI (HOP-92 NSCLC): 8.14 µM
- TGI (MDA-MB-231 breast): 6.57 µM
- TGI (TK-10 renal): 9.83 µM
- TGI (COLO 205 colon): 3.21 µM
- TGI (DLD-1 colon): 11.8 µM
- TGI (OVCAR-8 ovarian): 18.3 µM
- TGI (PC-3 prostate): 27.6 µM
- TGI (ACHN renal): 10.9 µM
- TGI (IGROV1 ovarian): 31.1 µM
- TGI (SNB-75 CNS): 29.1 µM
